Results as given in patent US8030442B2, “Treatment of injury to the brain by inhibition of acid sensing ion channels” (priority 2004, dated 2011).
Entries after “also recorded” stand apart in the source; their conditions may differ.

What was measured:
[1] = target: T1, ASICs in cortical neurons (Mus musculus, UniProt Q6NXK8); experiment: Ca2+-mediated acid-activated current in cortical neurons (10 mM Ca2+ as only charge carrier); assay type: cell-based; conditions: pH 6.0, -60 mV, n=6, read-out: peak amplitude of Ca2+-mediated current, % of control
T1 construct: indicating significant Ca^2+ permeability of ASICs in the majority of cortical neurons; endogenous in cells; host or cells: primary cultured mouse cortical neurons
T1 sequence (Q6NXK8 1-526): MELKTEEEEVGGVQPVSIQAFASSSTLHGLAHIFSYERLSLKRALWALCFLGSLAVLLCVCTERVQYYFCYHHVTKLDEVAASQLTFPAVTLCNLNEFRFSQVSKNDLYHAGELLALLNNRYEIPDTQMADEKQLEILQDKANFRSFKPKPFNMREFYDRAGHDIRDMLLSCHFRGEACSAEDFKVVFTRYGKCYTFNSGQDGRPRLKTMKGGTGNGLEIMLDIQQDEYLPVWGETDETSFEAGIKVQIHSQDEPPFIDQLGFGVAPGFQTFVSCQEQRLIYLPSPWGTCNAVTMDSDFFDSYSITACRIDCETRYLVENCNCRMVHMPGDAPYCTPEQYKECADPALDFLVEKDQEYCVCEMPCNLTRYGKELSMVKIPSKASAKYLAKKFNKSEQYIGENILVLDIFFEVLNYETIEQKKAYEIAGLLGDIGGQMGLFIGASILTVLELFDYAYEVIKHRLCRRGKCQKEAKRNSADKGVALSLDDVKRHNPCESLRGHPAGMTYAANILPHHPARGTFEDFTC

[2] = system: cortical neurons; assay type: cell-based, mouse; conditions: with MK801, CNQX, nimodipine, ω-conotoxin MVIIC; n=6-8
[3] = system: cortical neurons cultured from ASIC+/+ and ASIC1-/- mice; experiment: LDH release in neurons cultured from ASIC+/+ and ASIC1-/- mice; assay type: cell-based, mouse
Procedure: Following anesthesia with halothane, cerebral cortices were dissected from PI ASIC1^+/+ and ASIC1^−/− mice and incubated with 0.05% trypsin-EDTA for 10 min at 37° C. Tissues were then triturated with fire-polished glass pipettes and plated on poly-L-ornithine-coated 24-well plates or 25×25 mm glass coverslips at a density of 2.5×10^5 cells per well or 10^6 cells per coverslip. Neurons were cultured with MEM supplemented with 10% horse serum (for E16 cultures) or Neurobasal medium supplemented with B27 (for P1 cultures) and used for electrophysiology and toxicity studies after 12 days. Glial growth was suppressed by addition of 5-fluoro-2-deoxyuridine and uridine, yielding cultured cells with ˜90% neurons as determined by NeuN and GFAP staining (data not shown).
Cells were treated with either pH 7.4 or 6.0 ECF for 1 hr. LDH release was measured 24 hr after acid incubation. […] Background absorbance at 620 was subtracted.

[4] = system: COS-7 cells stably transfected with ASIC1a; experiment: Acid-induced LDH release in ASIC1a-transfected COS-7 cells; assay type: cell-based; conditions: 100 μM, 1 hr pH 6.0, 24 hr
Procedure: COS-7 cells, a cell line commonly used for expression of ASICs due to its lack of endogenous channels (Chen et al. 1998; Immke and McCleskey 2001 and Escoubas et al. 2000), were cultured in MEM with 10% HS and 1% PenStrep (GIBCO). At ˜50% confluence, cells were cotransfected with cDNAs for ASICs and GFP in pcDNA3 vector using FuGENE6 transfection reagents (Roche Molecular Biochemicals). DNA for ASICs (0.75 μg) and 0.25 μg of DNA for GFP were used for each 35 mm dish. GFP-positive cells were selected for patch-clamp recording 48 hr after transfection. For stable transfection of ASIC1a, 500 μg/mL G418 was added to culture medium 1 week following the transfection. The surviving G418-resistant cells were further plated and passed for >5 passages in the presence of G418. Cells were then checked with patch-clamp and immunofluorescent staining for the expression of ASIC1a.
To provide additional evidence that activation of ASIC1a is involved in acid injury, acid injury of nontransfected and ASIC1a transfected COS-7 cells as described above was studied. Following confluence (36-48 hr after plating), cells were treated with either pH 7.4 or 6.0 ECF for 1 hr.
LDH release was measured 24 hr after acid incubation. […] Background absorbance at 620 was subtracted.

[5] = target: TRPM7 channels (Homo sapiens, UniProt Q96QT4); experiment: TRPM7 conductance, current-voltage relationship; assay type: cell-based; conditions: 100 μM or 500 μM, ~10 min
TRPM7 channels, sequence (Q96QT4 whole entry, the tested form may be a part): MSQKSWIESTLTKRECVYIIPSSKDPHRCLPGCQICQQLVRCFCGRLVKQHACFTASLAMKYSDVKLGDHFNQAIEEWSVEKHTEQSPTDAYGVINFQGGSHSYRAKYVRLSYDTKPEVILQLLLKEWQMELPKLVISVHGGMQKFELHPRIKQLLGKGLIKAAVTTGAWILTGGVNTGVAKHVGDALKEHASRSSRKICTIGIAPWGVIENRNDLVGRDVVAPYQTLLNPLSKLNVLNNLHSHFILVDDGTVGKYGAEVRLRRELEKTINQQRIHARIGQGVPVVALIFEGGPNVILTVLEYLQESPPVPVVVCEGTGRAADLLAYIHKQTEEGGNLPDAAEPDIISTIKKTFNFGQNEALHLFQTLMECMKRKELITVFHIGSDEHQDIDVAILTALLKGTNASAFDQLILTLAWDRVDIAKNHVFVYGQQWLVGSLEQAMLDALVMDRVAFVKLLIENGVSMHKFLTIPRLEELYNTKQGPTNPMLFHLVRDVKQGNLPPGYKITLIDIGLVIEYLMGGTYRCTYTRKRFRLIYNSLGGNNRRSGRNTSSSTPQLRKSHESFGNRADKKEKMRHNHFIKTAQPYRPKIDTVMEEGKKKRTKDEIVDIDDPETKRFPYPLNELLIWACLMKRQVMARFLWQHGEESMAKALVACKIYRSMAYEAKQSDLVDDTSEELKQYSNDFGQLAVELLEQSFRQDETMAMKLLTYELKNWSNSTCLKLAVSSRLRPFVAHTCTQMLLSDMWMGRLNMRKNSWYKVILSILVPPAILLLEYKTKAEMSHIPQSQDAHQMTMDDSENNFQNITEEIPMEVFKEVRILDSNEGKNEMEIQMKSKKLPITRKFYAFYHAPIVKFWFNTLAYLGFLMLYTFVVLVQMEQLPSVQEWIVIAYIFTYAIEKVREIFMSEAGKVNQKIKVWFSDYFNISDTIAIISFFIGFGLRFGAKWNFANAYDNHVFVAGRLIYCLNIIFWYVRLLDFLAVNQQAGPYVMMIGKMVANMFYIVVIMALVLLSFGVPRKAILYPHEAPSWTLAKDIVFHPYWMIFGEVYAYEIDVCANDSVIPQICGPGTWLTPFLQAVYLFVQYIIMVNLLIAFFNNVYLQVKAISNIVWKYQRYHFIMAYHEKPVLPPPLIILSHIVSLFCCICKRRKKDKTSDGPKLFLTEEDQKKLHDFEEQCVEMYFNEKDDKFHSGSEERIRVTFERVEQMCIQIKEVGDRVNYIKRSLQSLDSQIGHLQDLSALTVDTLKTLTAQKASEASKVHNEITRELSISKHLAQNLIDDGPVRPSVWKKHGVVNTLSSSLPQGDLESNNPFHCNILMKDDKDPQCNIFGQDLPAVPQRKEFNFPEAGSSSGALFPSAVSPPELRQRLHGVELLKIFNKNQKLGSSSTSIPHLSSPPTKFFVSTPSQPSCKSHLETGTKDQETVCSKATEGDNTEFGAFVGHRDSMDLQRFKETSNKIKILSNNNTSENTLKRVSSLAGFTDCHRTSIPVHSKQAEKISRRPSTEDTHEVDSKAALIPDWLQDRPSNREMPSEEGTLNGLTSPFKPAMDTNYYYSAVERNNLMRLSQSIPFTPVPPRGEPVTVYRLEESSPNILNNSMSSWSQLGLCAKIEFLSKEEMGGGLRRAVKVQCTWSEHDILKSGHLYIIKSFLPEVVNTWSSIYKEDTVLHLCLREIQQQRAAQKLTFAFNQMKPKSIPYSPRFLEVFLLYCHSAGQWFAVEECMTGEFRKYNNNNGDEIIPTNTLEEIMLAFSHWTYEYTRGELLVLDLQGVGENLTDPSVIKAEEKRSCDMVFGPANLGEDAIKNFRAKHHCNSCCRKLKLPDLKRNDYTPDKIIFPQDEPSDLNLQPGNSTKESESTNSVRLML
Procedure: In FIG. 36, after a stable current-voltage relationship (I-V curve) was recorded, amiloride at either 100 μM or 500 μM was perfused to the cell for ˜10 min. The I-V curve in the presence of amilolide was then generated (FIG. 36 A). Similarly in FIG. 36B, after a stable I-V curve was recorded, PcTX venom at 300 ng/ml was perfused to the cell for ˜10 min. The I-V curve in the presence of PcTX venom was then generated.

[6] = system: rat model of transient focal ischemia; assay type: in vivo; conditions: n=11
[7] = system: hippocampal slice; experiment: Seizure-like activity in hippocampal slices in magnesium-free aCSF; conditions: 100 μM for thirty minutes
Procedure: Hippocampal slices were bathed in magnesium-free artificial cerebrospinal fluid (aCSF). The absence of magnesium in the fluid makes neurons in the slice susceptible to seizure-like electrical activity. Accordingly, the hippocampal slice maintained in magnesium-free fluid provides a model system for epilepsy. Electrical potential was measured prior to addition of any compounds, after treatment with PcTX venom followed by electrical stimulation, after PcTX venom was removed, with amiloride, during transient removal of kyneuric acid, and kainic acid to promote seizure activity in the mice with or without injection of PcTX venom.
The three graphs in panel 23A show the electrical potential measured from the same hippocampal slice after electrical stimulation near the beginning of each voltage trace, to promote depolarization followed by re-polarization (a peak(s) in the voltage trace). Electrical stimulation of a control hippocampal slice, bathed in fluid with a physiological magnesium level, produced a single peak in the voltage trace (not shown here). In contrast, as shown here in the first graph of panel 23A, electrical stimulation of a hippocampal slice maintained in aCSF without magnesium produced a series of individual peaks, indicative of seizure-like activity.

[8] = system: cultured hippocampal neurons; experiment: Seizure-like electrical activity of cultured hippocampal neurons on kyneuric acid removal; assay type: cell-based; conditions: during kyneuric acid removal
Procedure: The neurons were grown in the presence of kyneuric acid. Removal of the kyneuric acid promoted spontaneous, sustained electrical activity by the neurons.
The magnitude and periodicity of the peaks in the voltage traces changed upon exposure to amiloride.

[9] = system: cortical neurons; experiment: Acid-induced LDH release in cortical neurons

## N=C(N)NC(=O)c1nc(Cl)c(N)nc1N [amiloride]
[1]
  remaining activity at 100 µM: 26%
[2]
  peak and sustained acid-induced increases in [Ca2+]i: largely inhibited
[3]; 1 hr pH 6.0, n=8-12
  acid-induced LDH release in ASIC+/+ neurons: reduced
[3]; knockout of the ASIC1 gene, n=8
  effect on acid-induced LDH release in ASIC1-/- neurons: eliminated the effect
[4]
  acid-induced LDH release: inhibited acid-induced LDH release
[5]
  conductance of TRPM7 channels: had no effect; also recorded: lack of blockade
[6]
  infarct volume: 229.7±41.1 mm^3
[7]
  peaks in voltage trace after electrical stimulation: reduced both the number and amplitude of peaks
[8]
  seizure-like electrical activity of neurons: blocked the seizure-like electrical activity
[9]; 100 μM, 10 min before and during 1 hr pH 6.0, without blocker 45.3%±3.8%
  LDH release at 24 hr, % of maximal: 31.1%±2.5%
[9]; alone, e.g. 5 hr, n=8
  LDH release on prolonged incubation: increased LDH release
[9]; pH 7.4 ECF for 1 hr
  baseline LDH release: did not affect baseline LDH release
